Drawing on patent US20260049085A1, “CYCLIC COMPOUNDS AND METHODS OF USING SAME” (SCHRÖDINGER, INC., priority 2022, published 2026), this text covers IC50 for ten molecules.

Each structure is given as a SMILES string. pIC50: −log10 of the molar value.

In assay [1] the test system is IL10 secretion, OCI-LY10 cells. The experiment in a line: Human IL10 secretion assay in OCI-LY10 cells (MSD). In kind it is cell-based. The following applies: 24 h incubation, relative to DMSO set as 100%, read-out: IL-10 Secretion IC50. Here is the method:
IL10 is one of the cytokines that are regulated via activation of NF-kB signaling. For example, in ABC-DLBCL cell lines, the activated NF-kB signaling leads to increased IL10 secretion. Inhibition of NF-kB signaling has been shown leading to decreased IL10 secretion.
OCI-LY10 cells were seeded in IMEM supplemented with 20% fetal bovine serum at 4.8×10^5 cells per 160 μL per well in 96-well V-bottom cell culture plates (coming, 3894), treated with 120 nL of 3-fold serial compound dilutions, starting at 4 mM. The final vehicle concentration was 0.075% DMSO in all wells. After a 24 h incubation, human IL-10 pre-coated plates (Meso Scale Discovery) were washed 3 times with PBST, and 50 μL culture medium was aspirated into the MSD plate and incubated at 4° C. overnight. The supernatant was then discarded, and the wells were washed 3 times with PBST. SULFO-TAG Anti-human IL-10 Antibody (50×) was diluted 50-fold according to the Meso Scale Protocol, then 25 μL of SULFO-TAG Anti-human IL-10 Antibody (1×) was added. After 2 h of incubation at RT, the supernatant was discarded, and the well was washed 3 times with PBST. 2× read buffer was added and the signal was read on an MSD Sector S600. The effect of a particular compound on IL10 secretion is shown relative to the effect of DMSO; set as 100%. IC50 values (nM) were determined using 4-parametric curve-fitting.

In assay [2] the target is T1, full-length MALT1 protein His-MALT1(1-824) (Homo sapiens, UniProt Q9UDY8).
T1 construct: full-length MALT1 protein His-MALT1(1-824); His (N); made in house; host or cells: baculovirus-infected insect cells
T1 sequence (Q9UDY8 1-824): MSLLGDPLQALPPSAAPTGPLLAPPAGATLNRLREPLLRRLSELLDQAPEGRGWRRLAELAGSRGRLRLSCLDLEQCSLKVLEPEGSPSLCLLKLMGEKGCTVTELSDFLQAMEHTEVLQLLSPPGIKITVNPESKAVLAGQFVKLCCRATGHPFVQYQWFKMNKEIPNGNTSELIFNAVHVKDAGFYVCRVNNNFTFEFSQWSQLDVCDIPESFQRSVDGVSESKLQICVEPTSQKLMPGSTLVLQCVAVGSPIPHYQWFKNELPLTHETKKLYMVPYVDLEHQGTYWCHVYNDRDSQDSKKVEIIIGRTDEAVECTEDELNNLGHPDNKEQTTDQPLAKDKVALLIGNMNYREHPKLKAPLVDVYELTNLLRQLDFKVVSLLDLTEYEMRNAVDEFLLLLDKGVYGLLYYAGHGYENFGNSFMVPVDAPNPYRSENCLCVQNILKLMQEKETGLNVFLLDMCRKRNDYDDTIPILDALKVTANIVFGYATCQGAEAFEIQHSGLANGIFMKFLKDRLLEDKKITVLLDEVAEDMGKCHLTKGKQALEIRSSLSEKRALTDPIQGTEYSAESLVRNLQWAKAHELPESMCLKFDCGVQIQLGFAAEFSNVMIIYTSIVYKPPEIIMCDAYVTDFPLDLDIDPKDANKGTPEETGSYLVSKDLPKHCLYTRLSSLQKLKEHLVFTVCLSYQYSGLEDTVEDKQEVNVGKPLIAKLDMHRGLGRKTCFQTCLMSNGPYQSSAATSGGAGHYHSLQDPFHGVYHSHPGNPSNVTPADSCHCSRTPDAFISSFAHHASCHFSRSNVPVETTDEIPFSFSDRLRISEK
The experiment in a line: MALT1 protease assay (Ac-LRSR-AMC tetrapeptide substrate, fluorescence). In kind it is biochemical. The following applies: 1 nM MALT1, 25 μM Ac-LRSR-AMC, 2 h pre-incubation, 8 hr incubation at RT. Put shortly: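 Full-length His-MALT1(1-824) from baculovirus-infected insect cells (1 nM) was pre-incubated 2 h at RT with compounds (0.1% DMSO), then 25 μM Ac-LRSR-AMC added in 50 mM Tris pH 7.5, 600 mM sodium citrate, 1 mM DTT, 1 mM EDTA, 0.05% BSA. Fluorescence (ex 355/em 460 nm) read after 8 h at RT; IC50 by non-linear regression of % remaining activity.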

Take `C[C@]1(c2ccn(C(F)F)n2)C[C@H](C(=O)Nc2cnc(-n3nccn3)c(Cl)c2)c2cnc3cc(F)nn3c21` (single isomer, unassigned) [Example 88]: the pIC50 in assay [1] is 7.00 to 8.00; in assay [2], above 8.00.
With `C[C@]1(c2cnn(C(F)F)c2)C[C@H](C(=O)Nc2cnc(OC(F)F)c(C#N)c2)c2cnc3cc(F)nn3c21` (single isomer, unassigned) [Example 92], the pIC50 in assay [1] is 6.00 to 7.00; in assay [2], above 8.00.
On to `C[C@]1(c2ccn(C(F)F)n2)C[C@H](C(=O)Nc2cnc(OC(F)F)c(C#N)c2)c2cnc3cc(F)nn3c21` (single isomer, unassigned) [Example 110], for which the pIC50 was 7.00 to 8.00 in assay [1] and above 8.00 in assay [2].
For `CC1(c2ccn(C(F)F)n2)CC(C(=O)Nc2cnc(-c3ncc(F)cn3)c(C(F)(F)F)c2)c2cnc3cc(F)nn3c21` (single isomer, unassigned) [Example 116], the negative-log IC50 (pIC50) in assay [1] was 6.00 to 7.00; in assay [2] it was above 8.00.
For the molecule `CC(F)(F)n1cc([C@@]2(C)C[C@H](C(=O)Nc3cnc(-n4nccn4)c(Cl)c3)c3cnc4cc(F)nn4c32)cn1` (single isomer, unassigned) [Example 120], the negative logarithm of the IC50 (pIC50) was 7.00 to 8.00 in assay [1] and above 8.00 in assay [2].
Consider `C[C@]1(c2ccn(C(F)F)n2)C[C@H](C(=O)Nc2cnc(-n3nccn3)c(C(F)(F)F)c2)c2cnc3cc(F)nn3c21` (single isomer, unassigned) [Example 124], for which the pIC50 in assay [1] was 7.00 to 8.00; in assay [2] it was above 8.00.
In the case of `C[C@]1(c2ccn(C(F)F)n2)C[C@H](C(=O)Nc2cnc(-c3ncccn3)c(C(F)(F)F)c2)c2cnc3cc(F)nn3c21` (single isomer, unassigned) [Example 136], the negative-log IC50 (pIC50) is 7.00 to 8.00 in assay [1] and above 8.00 in assay [2].
`C[C@]1(c2ccn(C(F)F)n2)C[C@H](C(=O)Nc2cnc(-c3ncccn3)c(Cl)c2)c2cnc3cc(F)nn3c21` (single isomer, unassigned) [Example 140]: the pIC50 in assay [1] was 7.00 to 8.00; in assay [2] it was above 8.00.
`Cn1ccc([C@@]2(C)C[C@H](C(=O)Nc3cnc(-n4nccn4)c(C(F)(F)F)c3)c3cnc4cc(F)nn4c32)n1` (single isomer, unassigned) [Example 144]: the figures for the negative logarithm of the IC50 (pIC50) in assay [1] and in assay [2] were 6.00 to 7.00 and above 8.00, respectively.
`C[C@]1(c2cnn(C(F)F)c2)C[C@H](C(=O)Nc2cnc(-c3ncccn3)c(C(F)(F)F)c2)c2cnc3cc(F)nn3c21` (single isomer, unassigned) [Example 148]: the pIC50 in assay [1] is 6.00 to 7.00; in assay [2] it was 7.00 to 8.00.
